Data from PubChem BioAssay (NCI).
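Cultured in 96-well plates, cells were exposed to test compound for 48 hours across five concentrations. Abbreviation: GI50, concentration required for 50% inhibition of growth. TGI: total growth inhibition.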

Assays:
Assay in all cases: NCI tumour cell line growth inhibition, 48 h
HOP-92 NSCLC = tested on: HOP-92 NSCLC
SK-MEL-5 melanoma = tested on: SK-MEL-5 melanoma
SNB-19 CNS = tested on: SNB-19 CNS
SK-OV-3 ovarian = tested on: SK-OV-3 ovarian
SF-539 CNS = tested on: SF-539 CNS
UO-31 renal = tested on: UO-31 renal
IGROV1 ovarian = tested on: IGROV1 ovarian
UACC-62 melanoma = tested on: UACC-62 melanoma
DLD-1 colon = tested on: DLD-1 colon
LXFL 529 NSCLC = tested on: LXFL 529 NSCLC
M19-MEL melanoma = tested on: M19-MEL melanoma
DMS 273 small cell lung = tested on: DMS 273 small cell lung

Structure (SMILES)	GI50 (HOP-92 NSCLC)	TGI (HOP-92 NSCLC)	GI50 (SK-MEL-5 melanoma)	TGI (SK-MEL-5 melanoma)	GI50 (SNB-19 CNS)	TGI (SNB-19 CNS)	GI50 (SK-OV-3 ovarian)	TGI (SK-OV-3 ovarian)	GI50 (SF-539 CNS)	TGI (SF-539 CNS)	GI50 (UO-31 renal)	TGI (UO-31 renal)	GI50 (IGROV1 ovarian)	TGI (IGROV1 ovarian)	GI50 (UACC-62 melanoma)	TGI (UACC-62 melanoma)	TGI (DLD-1 colon)	TGI (LXFL 529 NSCLC)	TGI (M19-MEL melanoma)	TGI (DMS 273 small cell lung)
COC(=O)[C@]12CC[C@@H](C)[C@H](C)[C@@H]1C1=CC[C@@H]3[C@@]4(C)C(C=O)=C[C@@](C)(COC(C)=O)C4=CC[C@@]3(C)[C@]1(C)CC2	2.63 µM	16.3 µM	10.5 µM	22.6 µM	5.25 µM	25.6 µM	18 µM	50.4 µM	10.5 µM	26 µM	3.61 µM	16 µM	5.51 µM	22.7 µM	4.11 µM	18.1 µM	–	–	–	–
O=C1C(=O)c2c(nc3ccc(Br)cn23)-c2ccccc21	1.22 µM	2.7 µM	0.317 µM	0.788 µM	1.41 µM	2.72 µM	1.71 µM	3.09 µM	0.472 µM	1.01 µM	0.48 µM	1.24 µM	1.05 µM	2.74 µM	0.365 µM	1.27 µM	–	–	–	–
Cc1cc(O)ccc1C1=NN(c2ccc(S(C)(=O)=O)cc2)C(=O)CC1	6.49 µM	> 100 µM	5.49 µM	> 100 µM	50.4 µM	> 100 µM	9.77 µM	> 100 µM	13.2 µM	> 100 µM	14.8 µM	> 100 µM	7.13 µM	> 100 µM	4 µM	> 100 µM	–	–	–	–
O=C(c1ccccc1)[C@H]1Nc2ccc(Cl)cc2C2c3ccccc3CC21 (stereo not given in full)	–	–	–	85.2 µM	–	> 100 µM	–	–	–	> 100 µM	–	> 100 µM	–	> 100 µM	–	–	> 100 µM	> 100 µM	> 100 µM	> 100 µM
CC1(C)C(O)C[C@@H](O)[C@@]2(C)C1CC[C@]1(C)C2C[C@@H](O)[C@@H]2C([C@@]3(C)CC[C@@H](C(C)(C)O)O3)CCC21C (stereo not given in full)	–	23.5 µM	–	22.6 µM	–	30.4 µM	–	33.5 µM	–	27.5 µM	–	32.8 µM	–	28.1 µM	–	22.6 µM	31.5 µM	22.4 µM	–	27.7 µM
NC(=O)c1ccc(NN=O)nc1	> 100 µM	> 100 µM	–	> 100 µM	–	> 100 µM	–	> 100 µM	–	> 100 µM	–	> 100 µM	–	> 100 µM	–	> 100 µM	–	–	–	–
CC1COc2c(N3CCN(C)CC3)c(F)cc3c(=O)c(C(=O)O)cn1c23 (stereo not given)	0.478 µM	> 100 µM	> 100 µM	> 100 µM	> 100 µM	> 100 µM	> 100 µM	> 100 µM	> 100 µM	> 100 µM	47.5 µM	> 100 µM	> 100 µM	> 100 µM	> 100 µM	> 100 µM	–	–	–	–
CNC(=O)OCc1c2ccncc2c(C)c2c1[nH]c1ccccc12	–	16.5 µM	–	0.773 µM	–	7.98 µM	–	1.78 µM	–	0.784 µM	–	0.966 µM	–	1.3 µM	–	0.869 µM	–	–	–	–
Cc1cc2c(cc1C)[n+](=O)c(C(=O)C/C(=N/OCCCc1ccccc1)C(=O)Nc1cc(Cl)ccc1Cl)c(C)n2[O-]	–	–	–	> 100 µM	–	> 100 µM	–	> 100 µM	–	> 100 µM	–	–	–	> 100 µM	–	> 100 µM	> 100 µM	> 100 µM	> 100 µM	> 100 µM
Nc1nc2c(s1)CCc1c-2c(Br)n(Cc2ccccc2)c1Br	4.43 µM	23.9 µM	14.3 µM	30.2 µM	23.3 µM	86.4 µM	23.6 µM	53.7 µM	15.4 µM	29.2 µM	1.8 µM	4.41 µM	14.1 µM	37.5 µM	10.4 µM	24.7 µM	–	–	–	–
CS(=O)(=O)Nc1ccc(-c2cc(-c3ccccc3)cc(C(N)=O)c2N)cc1	8.9 µM	> 25 µM	15.6 µM	> 25 µM	> 25 µM	> 25 µM	> 25 µM	> 25 µM	> 25 µM	> 25 µM	14.7 µM	> 25 µM	> 25 µM	> 25 µM	> 25 µM	> 25 µM	–	–	–	–
Cc1ccc(S(=O)(=O)N2CCSCCN(S(=O)(=O)c3ccc(C)cc3)CCN(S(=O)(=O)c3ccc(C)cc3)CC2)cc1	–	9.06 µM	–	> 100 µM	–	> 100 µM	–	86.7 µM	–	56.8 µM	–	> 100 µM	–	> 100 µM	–	> 100 µM	–	–	–	–
N#Cc1c2c(c(N=P(c3ccccc3)(c3ccccc3)c3ccccc3)n3c1nc1ccccc13)CCCC2	–	–	–	27.3 µM	–	99.2 µM	–	> 100 µM	–	> 100 µM	–	79.4 µM	–	> 100 µM	–	74.4 µM	> 100 µM	> 100 µM	67.8 µM	56.1 µM
CC1CC(=O)Nc2ccccc2N1C(=O)CN1CCC(CCCCN(C)C)CC1 (stereo not given)	–	–	–	> 100 µM	–	> 100 µM	–	–	–	> 100 µM	–	> 100 µM	–	> 100 µM	–	> 100 µM	> 100 µM	> 100 µM	> 100 µM	> 100 µM
CC[P+](C)(C)c1ccccc1	–	–	–	> 100 µM	–	> 100 µM	–	> 100 µM	–	> 100 µM	–	> 100 µM	–	> 100 µM	–	> 100 µM	> 100 µM	> 100 µM	> 100 µM	> 100 µM
C[C@H](Nc1ncnc2nc[nH]c12)c1cc2ccc(F)cc2nc1-c1ccccn1	3.43 µM	> 100 µM	91.2 µM	> 100 µM	> 100 µM	> 100 µM	48.3 µM	> 100 µM	> 94.7 µM	> 100 µM	9.3 µM	> 100 µM	20.4 µM	> 100 µM	9.29 µM	> 100 µM	–	–	–	–
C/C(=C\CCc1ccoc1)CC/C=C(\C)CCCN1CCOCC1	1.43 µM	5.49 µM	1.7 µM	3.52 µM	9.27 µM	23.6 µM	7.06 µM	19.7 µM	5.49 µM	19.7 µM	10.3 µM	24.6 µM	15.4 µM	36.8 µM	5.02 µM	18.2 µM	–	–	–	–
